In EPA's ToxValDB 9.5:

System: Mus musculus
Settings: oral
[1] = acute, duration: 1 days, gavage, F, Body Weight: 12% decreased body weight 30 days post-exposure + Endocrine: 2-fold increase in T3 and 4-fold increase in T4 levels 30 days …
[2] = developmental, duration: 10 days, gavage, F, Body Weight: No weight gain at 6.4 mg/kg/day and weight loss at 12.8 mg/kg/day (net change of -2.4)
[3] = developmental, duration: 10 days, gavage, F, Developmental: 18-22% decreases in fetal weight per litter at ?1 mg/kg/day / decreases in live fetuses per litter at 12.8 mg/kg/day (4.6 …
[4] = short-term, duration: 4 weeks, F, B6C3F1, Immunotoxicological: Decreases in splenic T-cells, T-cell subsets, and macrophages

## O=C(O)C(F)(F)C(F)(F)C(F)(F)C(F)(F)C(F)(F)C(F)(F)C(F)(F)C(F)(F)C(F)(F)F [Perfluorodecanoic acid]
[1]
  LOAEL: 80 mg/kg-day
  NOAEL: 40 mg/kg-day
acute, duration: 1 days, gavage, F, Cardiovascular: No histological alterations in the heart 30 days post-exposure / decreased relative heart weight at 80 mg/kg/day + Hepatic…
  NOAEL: 80 mg/kg-day
acute, duration: 1 days, gavage, F, Death: LD50 in 30-day observation period
  LOAEL: 120 mg/kg-day
acute, duration: 1 days, gavage, F, Hepatic: Increase in hepatic lipids and liver weight 2 days post-exposure at 40 mg/kg/day
  NOAEL: 160 mg/kg-day
acute, duration: 1 days, gavage, F, Immunotoxicological: 28% decrease in relative spleen weight at 80 mg/kg/day / atrophy and lymphoid depletion in thymus and spleen at 160 mg…
  LOAEL: 160 mg/kg-day
developmental, duration: 1 days, gavage, M, CD1, Developmental: No alteration in spontaneous activity or habituation at 2-4 months of age
  NOAEL: 10.8 mg/kg-day
[2]
  LOAEL: 6.4 mg/kg-day
  NOAEL: 3 mg/kg-day
developmental, duration: 10 days, gavage, F, Body Weight: No weight gain at 6.4 mg/kg/day and weight loss at 12.8 mg/kg/day (net change of -2.4) + Developmental: 18-22% decreases in …
  LOAEL: 12.8 mg/kg-day
[3]
  LOAEL: 1 mg/kg-day
  NOAEL: 0.3 mg/kg-day
short-term, duration: 4 weeks, F, B6C3F1
  NOAEL: 5 mg/kg-day
[4]
  LOAEL: 1.25 mg/kg-day
  NOAEL: 0.625 mg/kg-day
short-term, duration: 10 days, diet, M, Body Weight: 33% weight loss
  LOAEL: 78 mg/kg-day
short-term, duration: 10 days, diet, M, Hepatic: 36% increase in liver weight
  NOAEL: 78 mg/kg-day
